{"source": "patent US20250250582A1", "about": "“Plant Cells and Plants Modified to Increase Herbicide Resistance and Stress Tolerance and Methods of Using the Same” (The Board of Trustees of the University of Arkansas, priority 2018, published 2025)", "key": {"[1]": {"tested_on": "multiple-resistant E. colona (ECO-R)", "experiment": "Herbicide resistance profile of ECO-R", "assay_type": "in vivo, Echinochloa colona", "details": "data not shown", "description": "Beginning in 2010, through the 2016 cropping cycle, Echinochloa spp. from throughout the rice producing counties of Arkansas, USA, located along the Mississippi River were sampled for a survey of the current status of herbicide resistance. Seeds were bulk sampled from plants that had matured in rice and soybean production fields, which had survived at least one herbicide application, were collected and sent to the University of Arkansas Altheimer Laboratory in Fayetteville for characterization and evaluation of herbicide resistance to common rice herbicides. […] From this screening program, two populations of E. colona were selected for use in this experiment. […] To establish inbred and homozygous accessions for the experiment, a single plant, verified as resistant/susceptible of ECO-R and ECO-S were grown in isolation to produce seed for further experiments.\nAccession source and population profiling. From 2010 to 2016, the University of Arkansas weed physiology group has been collecting putative herbicide-resistant Echinochloa populations from rice production fields throughout the state of Arkansas. […] Collections took place in the late summer to early fall prior to rice harvest; these accessions were bulk sampled by in-field location and farm, with field histories collected when possible. All of the samples were submitted to the University of Arkansas Altheimer Laboratory for assessment of their resistance profile and characterized according to their species. […] Populations with unique profiles and of interest for further research were then grown in isolation to produce pureline seed. […] Another accession, E. colona susceptible (ECO-S), was also selected and grown in isolation. This accession was selected because of its similar cropping history and geographic location, as well as its high level of susceptibility to the herbicides of interest."}, "[2]": {"tested_on": "resistant Echinochloa species", "experiment": "Determination of resistance level (visual injury), resistant accessions", "assay_type": "in vivo, E. colona and E. crus-galli", "details": "2 X dose, visual 3 wk after treatment; propanil range excludes ECO187", "description": "The experiment was repeated once."}, "[3]": {"tested_on": "multiple-resistant E. colona (ECO-R)", "experiment": "RNA-sequencing differential gene expression, herbicide-treated vs nontreated ECO-R", "details": "ECO-R-T vs ECO-R-N, 24 h", "description": "(§1) Pure-line generated seed of each accession were germinated in pots containing potting soil within a temperature/light controlled growth chamber set to a 14-hr day length, 33 C day temperature, and 24 C night time to simulate environmental conditions early in the rice growing season. A single plant was maintained in each of the pots and used for the treatments; two pots were used as individual biological replicates. […] Pots for each of the respective treatments were labeled as either ECO-R/S-T for the treated samples and ECO-R/S-N for the non-treated counterpart. To minimize the effect that the sprayer may play in the application, both plants of the ECO-R and ECO-S were treated at the same time. After approximately 30 minutes, allowing for the plants to dry, the treated and non-treated plants of both accessions were moved back into the growth chamber. Precisely 24-hours after application, the aboveground portion of each of the plants were removed and immediately frozen in liquid nitrogen to cease all biological function. Samples were then transferred to RNAlater™-ICE (Invitrogen, Carlsbad CA, USA) for shipment to the Clemson University Genomics Institute (CUGI), in Clemson, South Carolina.\n(§2) RNA was extracted from the young leaf tissues of both replications for the ECO-R and ECO-S, T and N samples, at Clemson University. Total RNA was extracted with a kit according to the manufactures instructions. The extracted RNA was treated with DNase (Invitrogen, Calsbad, CA, USA) to remove any DNA contamination prior to further processing. The samples were prepared for sequencing by CUGI. For library preparation, the TruSeq Stranded Total RNA kit (Illumina Inc., San Diego, CA, USA) was used according to the instructions provided by the manufacturer to produce a paired-end library for sequencing. Ribosomal RNA was removed using target-specific oligonucleotides paired with rRNA removal beads, removing all cytoplasmic and mitochondrial rRNA that may result in poor quality results. RNA was fragmented and reverse transcribed to cDNA using random primers, followed by a second strand cDNA synthesis. Each fragment is then ligated with an additional ‘A’ and an adapter for sequencing. The PCR enriched product is then used to create the final cDNA library. All samples were sequenced on an Illumina Hiseq 2500 platform housed in the Holdings Cancer Center at the Medical University of South Carolina, Charleston, SC, USA. Samples, regardless of treatments or replication were ran across three lanes to reduce sequencing errors from the equipment. The resulting data were processed by CUGI.\n(§3) A de novo transcriptome was assembled from the treatments described for this experiment as well as several treatments, which included herbicides profiled in ECO-R. The treatments were applied to both ECO-R and ECO-S samples with two replications as described previously. In total, 20 individual plants, from both the ECO-R and ECO-S accessions, as well as T and NT samples, were used for the assembly. The transcriptome was assembled using the Trinity RNA-Seq pipeline (Broad Institute, Cambridge, MA, USA). Raw data were assessed for quality using FastQC (Babraham Institute, Cambridge, UK) and then processed to remove adapter sequences and low quality bases using a sliding window method. The processed data were then rerun using FastQC to ensure high quality reads. Using the TrinityRNASeq 2.2.0 software, the samples were normalized, by replication, using a coverage size of 100 and kmer of 32. The normalized reads were then assembled as transcripts and genes using Trinity with the stranded library set as the default."}, "[4]": {"tested_on": "susceptible E. colona (ECO-S)", "experiment": "RNA-sequencing differential gene expression, herbicide-treated vs nontreated ECO-S", "details": "ECO-S-T vs ECO-S-N, 24 h", "description": "as §1, §2, §3"}, "[5]": {"tested_on": "ECO-R compared to ECO-S after herbicide treatment", "experiment": "RNA-sequencing differential gene expression, ECO-R-T compared to ECO-S-T", "details": "ECO-R-T vs ECO-S-T, 24 h", "description": "as §1, §2, §3"}, "[6]": {"tested_on": "susceptible E. colona standard", "experiment": "Determination of resistance level (visual injury), susceptible plants", "details": "2 X dose, visual 3 wk after treatment"}}, "note": "Values joined by “and” are separate entries in the source; they are usually repeats but may differ in a detail not shown here. Equal values may be shown once."}
{"smiles": "C[C@@H](Oc1ccc(Oc2ccc(C#N)cc2F)cc1)C(=O)O", "note": "[cyhalofop]", "values": [{"measurement": "level of resistance", "setting": "[1]", "result": "~2", "unit": "× field dose"}]}
{"smiles": "O=C(O)c1c(Cl)ccc2cc(Cl)cnc12", "note": "[quinclorac]", "values": [{"measurement": "injury of resistant Echinochloa species", "setting": "[2]", "result": "2-65%"}, {"measurement": "ABCD2 fold change", "setting": "[3]", "result": "−9.2", "unit": "fold"}, {"measurement": "ACC synthase fold change", "setting": "[3]", "result": 6.3, "unit": "fold"}, {"measurement": "UGT73D1 fold change", "setting": "[3]", "result": 5.3, "unit": "fold"}, {"measurement": "UGT73E1 fold change", "setting": "[3]", "result": 2.6, "unit": "fold"}, {"measurement": "UGT75D1 fold change", "setting": "[3]", "result": "7.3 fold and ~9 fold"}, {"measurement": "cytochrome c oxidase proteins fold change", "setting": "[3]", "result": "−8.4", "unit": "fold"}, {"measurement": "ATP synthase subunit(s) fold change", "setting": "[3]; repressed", "result": "up to −12.3 fold"}, {"measurement": "acetyl-CoA and acetyl-CoA 2 proteins fold change", "setting": "[3]; repressed up to", "result": "up to −10.2 fold"}, {"measurement": "pyruvate dehydrogenase subunits fold change", "setting": "[3]; repressed up to", "result": "≤ −12", "unit": "fold"}, {"measurement": "ABCB5 fold change", "setting": "[4]", "result": "−6.5", "unit": "fold"}, {"measurement": "ABCC10 fold change", "setting": "[4]", "result": "−6.1", "unit": "fold"}, {"measurement": "ACC oxidase 1 fold change (two forms)", "setting": "[4]", "result": "2.2 fold and 2.8 fold"}, {"measurement": "ACC oxidase fold change", "setting": "[4]", "result": "−2.8", "unit": "fold"}, {"measurement": "ACC oxidase homolog 3 fold change", "setting": "[4]", "result": "−2.2", "unit": "fold"}, {"measurement": "ACC synthase fold change", "setting": "[4]", "result": "−2.7", "unit": "fold"}, {"measurement": "ALPL1 fold change, five repressed transcripts", "setting": "[4]", "result": "−12 to −1.4", "unit": "fold"}, {"measurement": "EIN2 fold change", "setting": "[4]", "result": 3.9, "unit": "fold"}, {"measurement": "RAP2-2 fold change", "setting": "[4]", "result": 1.9, "unit": "fold"}, {"measurement": "VP14 (9-cis-epoxycarotenoid dioxygenase) fold change", "setting": "[4]", "result": "−6.4", "unit": "fold"}, {"measurement": "ALPL1 fold change, three induced transcripts", "setting": "[4]; as much as", "result": "≤ 3.5", "unit": "fold"}, {"measurement": "ABA receptor PYL5 fold change", "setting": "[5]", "result": "−4.4", "unit": "fold"}, {"measurement": "ACC synthase fold change", "setting": "[5]", "result": 9, "unit": "fold"}, {"measurement": "Alanine aminotransferase 2 Fold Change", "setting": "[5]", "result": 4, "unit": "fold"}, {"measurement": "Aspartate aminotransferase, chloroplastic Fold Change", "setting": "[5]", "result": 4, "unit": "fold"}, {"measurement": "Beta-amylase 1, chloroplastic Fold Change", "setting": "[5]", "result": 4, "unit": "fold"}, {"measurement": "Branched-chain-amino-acid aminotransferase 5, chloroplastic Fold Change", "setting": "[5]", "result": 4, "unit": "fold"}, {"measurement": "CYP71A1 Fold Change", "setting": "[5]", "result": "3 fold and 5 fold and 6 fold"}, {"measurement": "CYP71A4 Fold Change", "setting": "[5]", "result": "5.6 fold and 6 fold"}, {"measurement": "CYP71A8 Fold Change", "setting": "[5]", "result": 4, "unit": "fold"}, {"measurement": "CYP71A9 Fold Change", "setting": "[5]", "result": "−6", "unit": "fold"}, {"measurement": "CYP72A15 Fold Change", "setting": "[5]", "result": "−7", "unit": "fold"}, {"measurement": "CYP89A2 Fold Change", "setting": "[5]", "result": "−10", "unit": "fold"}, {"measurement": "CYP709B2 Fold Change", "setting": "[5]", "result": "6 fold and 7 fold and 11 fold"}, {"measurement": "Desumoylating isopeptidase 1 Fold Change", "setting": "[5]", "result": 4, "unit": "fold"}, {"measurement": "Fructose-bisphosphate aldolase, chloroplastic Fold Change", "setting": "[5]", "result": 4, "unit": "fold"}, {"measurement": "GSTU20 Fold Change", "setting": "[5]", "result": 6, "unit": "fold"}, {"measurement": "Haloacid dehalogenase-like hydrolase domain-containing protein 3 Fold Change", "setting": "[5]", "result": 4, "unit": "fold"}, {"measurement": "IAA-amino acid hydrolase ILR1-like 4 Fold Change", "setting": "[5]", "result": "−6", "unit": "fold"}, {"measurement": "Nudix hydrolase 21, chloroplastic Fold Change", "setting": "[5]", "result": "3 fold and 4 fold"}, {"measurement": "Probable xyloglucan endotransglucosylase/hydrolase protein 28 Fold Change", "setting": "[5]", "result": "−4", "unit": "fold"}, {"measurement": "Prolyl endopeptidase Fold Change", "setting": "[5]", "result": "8 fold and 9 fold and 15 fold"}, {"measurement": "Pyrimidine-specific ribonucleoside hydrolase RihA Fold Change", "setting": "[5]", "result": "−9", "unit": "fold"}, {"measurement": "Serine carboxypeptidase-like 42 Fold Change", "setting": "[5]", "result": "−5", "unit": "fold"}, {"measurement": "UGT73D1 fold change", "setting": "[5]", "result": 8, "unit": "fold"}, {"measurement": "UGT73E1 fold change", "setting": "[5]", "result": 5, "unit": "fold"}, {"measurement": "UGT74D1 Fold Change", "setting": "[5]", "result": "−4", "unit": "fold"}, {"measurement": "UGT75D1 fold change", "setting": "[5]", "result": "8.7 fold and 9 fold"}, {"measurement": "UGT88A1 Fold Change", "setting": "[5]", "result": 4, "unit": "fold"}, {"measurement": "susceptible plants killed", "setting": "[6]", "result": 100, "unit": "%"}, {"measurement": "level of resistance", "setting": "[1]", "result": "> 32", "unit": "× field dose"}]}
{"smiles": "CP(=O)(O)CCC(N)C(=O)O", "note": "(stereo not shown) [glufosinate]", "values": [{"measurement": "glutamine synthetase (one form) fold change", "setting": "[3]; induced", "result": 7.5, "unit": "fold"}, {"measurement": "glutamine synthetase cytosolic isozyme 1-3 fold change", "setting": "[3]; induced", "result": 8.2, "unit": "fold"}, {"measurement": "level of resistance", "setting": "[1]", "result": "~2", "unit": "× field dose"}]}
